# Results from ChEMBL document CHEMBL5137104, “Novel IRAK4 Inhibitors for Treating Asthma” (ACS Med Chem Lett, 2022).
# Target: T1, Interleukin-1 receptor-associated kinase 4 (Homo sapiens, UniProt Q9NWZ3)
# T1 sequence (Q9NWZ3 whole entry): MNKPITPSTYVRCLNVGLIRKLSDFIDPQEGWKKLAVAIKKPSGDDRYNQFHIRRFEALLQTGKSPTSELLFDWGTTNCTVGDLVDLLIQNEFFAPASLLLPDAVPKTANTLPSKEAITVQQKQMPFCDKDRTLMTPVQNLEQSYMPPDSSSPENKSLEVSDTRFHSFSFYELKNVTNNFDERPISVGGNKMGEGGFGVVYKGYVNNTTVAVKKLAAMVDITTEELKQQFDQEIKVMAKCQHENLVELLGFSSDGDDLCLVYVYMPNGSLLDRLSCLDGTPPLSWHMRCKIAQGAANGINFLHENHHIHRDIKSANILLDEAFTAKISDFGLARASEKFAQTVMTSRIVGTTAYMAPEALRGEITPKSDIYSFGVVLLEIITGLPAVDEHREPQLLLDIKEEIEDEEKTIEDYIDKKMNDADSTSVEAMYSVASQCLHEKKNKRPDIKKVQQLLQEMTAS
# Test: Inhibition of recombinant human full-length His-tagged IRAK4 expressed in baculovirus infected insect cells using KKARFSRFAGSSPSQSSMVAR as substrate preincubated for 15 mins followed by substrate addition and measured after 2 hrs by LC-MS/MS analysis
row,IC50,Structure (SMILES)
1,0.2 nM,COc1cc2nn([C@H]3CC[C@@]4(CC3)CC(=O)N(C)C4)cc2cc1C(=O)Nc1cnc2cccnn12
2,0.2 nM,COc1cc2nn([C@H]3CC[C@H](N(C)C(=O)[C@@H](C)O)CC3)cc2cc1C(=O)Nc1cnc2cccnn12
3,< 0.03 nM,CO[C@H]1C[C@H](Oc2cc3nn(C4CCC5(CC4)CN(C(C)=O)C5)cc3cc2C(=O)Nc2cnc3cccnn23)C1
